Source: ChEMBL document CHEMBL3046364, “Influence of 1, 3, 5-Triazine Compounds on Ammonia Oxidizing Activity of Cell-Free Extracts from Nitrosomonas europaea” (J Pestic Sci, 2002)

These molecules were tested on Nitrosomonas europaea (assay: Inhibition of ammonia oxidation in cell suspensions of Nitrosomonas europaea ATCC 25978 assessed as oxygen consumption). Details: read-out: pI50 (converted).
Assay type: functional, organism-based

| IC50 [µM] | Compound |
| --- | --- |
| 3.55 | CNc1nc(C)nc(C(Cl)(Cl)Cl)n1 |
| 0.0759 | Nc1nc(C(Cl)(Cl)Cl)nc(C(Br)(Br)Br)n1 |
| 21.9 | CCCCCCCCCCCCCCNc1nc(C)nc(C(Cl)(Cl)Cl)n1 |
| 2 | CCNc1nc(C)nc(C(Cl)(Cl)Cl)n1 |

| Compound | IC50 [µM] |
| --- | --- |
| Cc1nc(N)nc(C(Cl)(Cl)Cl)n1 | 4.9 |
